Data from patent publication US20110207751A1, “HETEROCYCLIC COMPOUNDS AND USES AS ANTICANCER AGENTS” (priority 2010, published 2011).
Counter-ions that a name gives are not always drawn.

What was measured:
[1] = test system: KB cells (parental cervical cancer cell line); assay: Inhibition of cell proliferation, xCelligence cell index; format: cell-based; conditions: Homo sapiens, 72 hr post compound treatment, read-out: calculated IC50
Description: The biological activity of compounds disclosed herein was monitored and profiled using the Real-Time Cell Electronic Sensing (RT-CES®) system from ACEA Biosciences, Inc. The RT-CES system utilizes cell-substrate impedance technology to monitor cellular behavior inside tissue culture wells in a microtiter plate format. The technology features in the integration of molecular and cell biology with microelectronics and is based on the electronic detection of biological assay process.
For measurement of cell-substrate or cell-electrode impedance using RT-CES technology, microelectrodes having appropriate geometries are fabricated onto the bottom surfaces of microtiter plate or similar device, facing into the wells. Cells are introduced into the wells of the devices, and make contact to and attach to the electrode surfaces. The presence, absence or change of properties of cells affects the electronic and ionic passage on the electrode sensor surfaces. Measuring the impedance between or among electrodes provides important information about biological status of cells present on the sensors. When there are changes to the biological status of the cells analogue electronic readout signals are measured automatically and in real time, and are converted to digital signals for processing and for analysis. In a RT-CES system, a cell index (arbitrary representation of change in impedance) is automatically derived and provided based on measured electrode impedance values. The cell index obtained for a given well reflects: 1) how many cells are attached to the electrode surfaces in this well; 2) how well cells are attached to the electrode surfaces in this well. […]
To quantify cell status based on the measured cell-electrode impedance, a parameter termed Cell Index is derived. Cell Index is a quantitative measure of the status of the cells in an electrode-containing well. […]
The parental cervical cancer cell line, KB cells were first tested. […] The cell status was monitored prior to and after the compound addition using xCelligence system (Roche). […]

[2] = test system: A549 human non-small cell lung cancer xenograft; assay: In vivo antitumor efficacy, A549 xenograft; set-up: species or system BALB/c immunodeficient nude mice
Description: To evaluate the in vivo anticancer efficacy of COMPOUND O, A549 human non-small cell lung cancer xenograft models in immunodeficient nude mice was used. The cell line and mice were maintained in the Pharmacology Lab of ACEA Bio (Hangzhou) CO., Ltd. The BALB/c immunodeficient nude mice were purchased from Shanghai SLAC Laboratory Animal, certification number: SCXKA (Shanghai) 2007-0005. The mouse weight was between 21±1 g. Only female mice were used in this study. The numbers of animals tested were as follow: 7-8 for each dose group, 6 for positive control group and 7 for negative control group.
(§1) Test Control. For negative control, each mouse was administered orally with the solvent only having the same volume and same concentration as those used in COMPOUND O test, 120 mg/kg once every other day (qod) for 25 days. For positive control, an oral anticancer compound, Etoposide was administered orally at 30 mg/kg qod for 25 days.
Preparation an Administration of Test Compounds. COMPOUND O was dissolved in 25% phospholipid (S75) and 75% polyvinylpyrrolidone (PL-PVP) then further diluted to 8 mg/ml in 0.9% NaCl aqueous solution. Each mouse was administered orally with the compound solution. Different dosages of COMPOUND O (120 mg/kg qod and 160 mg/kg q2*2 (dosing for 2 consecutive days then off for 2 consecutive days) were used in the study.
Preparation of tumor cells for transplantation and determination of compound efficacy. To prepare the cancer cells for A549 human non-small cell lung cancer xenograft model, the log phase growing cell in the flask were trypsinized and cells were re-suspended in PBS (pH 7.2) at 2.5×10^7 cells/ml. The cell suspension (5×10^6 cells) was subcutaneously injected into the auxiliary region (right-side) of each mouse. After the inoculated cancer cells grew to a tumor of certain size (50-60 mm^3) in the nude mice (about 15 days post inoculation), the mice were randomized into different dosing groups and subjected to compound treatment. Between 3-4 weeks after the first dosing, mice were sacrificed and the transplanted tumors were removed from experimental mice. Each removed solid tumor was weighed; the tumor inhibition rate in each dosage group was calculated according to equation (1) in Example 1.
(§2) All used materials including animal food, animal cage, supporting materials and apparatus contacted by animals, were high-pressure sterilized. Nude mice were maintained in laminar flow shelves under SPF condition. After tumor transplantation, mouse weight and tumor size in each compound dosage group were dynamically monitored and plotted. The tumor size was determined by measuring the major axis (a) and minor axis (b) of the tumor, and tumor volume was calculated according to the formula (2) in Example 1.

[3] = Body weight and animal number of carrier mice, MKN45 xenograft test; format: in vivo, BALB/c immunodeficient nude mice; conditions: for Animal No. end: 7 at beginning
Description: To evaluate the in vivo anticancer efficacy of COMPOUND O, MKN45 human gastric-intestinal cancer xenograft models in immunodeficient nude mice was tested. All the mouse models are maintained in the Pharmacology Lab of ACEA Bio (Hangzhou) CO., Ltd. The BALB/c immunodeficient nude mice were purchased from Shanghai SLAC Laboratory Animal, certification number: SCXKA (Shanghai) 2007-0005. The mouse weight was 19±1 g. Only female mice were used in this study. The numbers of animals tested were as follow: 7 for each dose group, 7 for positive control group and 7 for negative control group.
Test Control. For negative control, each mouse was administered orally with the solvent only having the same volume and same concentration as those used in COMPOUND O test, 120 mg/kg once every other day (qod) for 18 days. […]
Preparation an Administration of Test Compounds. COMPOUND O was dissolved in 25% phospholipid (S75) and 75% polyvinylpyrrolidone (PL-PVP) then further diluted to 8 mg/ml in 0.9% NaCl aqueous solution. Different dosages of COMPOUND O between 120 mg/kg qod (once every other day) and 160 mg/kg q3d (once every 3 days) were used in the study.
All used materials including animal food, animal cage, supporting materials and apparatus contacted by animals, were high-pressure sterilized. Nude mice were maintained in laminar flow shelves under SPF condition. After tumor transplantation, mouse weight and tumor size in each compound dosage group were dynamically monitored and plotted. The tumor size was determined by measuring the major axis (a) and minor axis (b) of the tumor, and tumor volume was calculated according to the formula: […]

[4] = Body weight and animal number of carrier mice, H460 xenograft test; format: in vivo, BALB/c immunodeficient nude mice; conditions: for Animal No. end: 7 at beginning
Description: To evaluate the in vivo anticancer efficacy of COMPOUND O, H460 human non-small cell lung Cancer xenograft models in immunodeficient nude mice was used. The cell line and mice were maintained in the Pharmacology Lab of ACEA Bio (Hangzhou) CO., Ltd. The BALB/c immunodeficient nude mice were purchased from Shanghai SLAC Laboratory Animal, certification number: SCXKA (Shanghai) 2007-0005. The mouse weight was between 19±2 g. Only female mice were used in this study. The numbers of animals tested were as follows: 7 for each dose group, 7 for positive control group and 7 for negative control group.
as §1
Preparation an Administration of Test Compounds. COMPOUND O was dissolved in 25% phospholipid (S75) and 75% polyvinylpyrrolidone (PL-PVP) then further diluted to 8 mg/ml in 0.9% NaCl aqueous solution. Each mouse was administered orally with the compound solution. Different dosages of COMPOUND O (120 mg/kg qod and 160 mg/kg q3d) were used in the study.
as §2

[5] = test system: microtubule network in A549 cells; assay: Microtubule organization in A549 cells; format: cell-based, human; conditions: 20 hr treatment

Compound: CCc1ccc(Nc2nc(-c3c(C)nc4sccn34)cs2)cc1 [COMPOUND O, 2-(4-ethylphenyl)amino-4-(6-methylimidazo[2,1-b]thiazol-5-yl)-thiazole monohydrobromide]
- IC50 [1]: 0.0331 µM
- TV inhibition rate % T/C ([2]; 120 mg/kg ig × 14 qod): 37.5%
- Tumor volume (mm^3) End ([2]; 120 mg/kg ig × 14 qod): 244 ± 105 mm^3
- Tumor volume (mm^3) Start ([2]; 120 mg/kg ig × 14 qod): 53.31 ± 24.5 mm^3
- Tumor weight (g) x ± SD ([2]; 120 mg/kg ig × 14 qod): 0.25 ± 0.08 g
- Tumor inhibition rate % ([2]; 120 mg/kg ig × 14 qod, by tumor weight): 67.8%
- TV inhibition rate % T/C ([2]; 160 mg/kg ig × 11 q2*2): 47.9%
- Tumor volume (mm^3) End ([2]; 160 mg/kg ig × 11 q2*2): 265 ± 135 mm^3
- Tumor volume (mm^3) Start ([2]; 160 mg/kg ig × 11 q2*2): 45.25 ± 15.9 mm^3
- Tumor weight (g) x ± SD ([2]; 160 mg/kg ig × 11 q2*2): 0.29 ± 0.11 g
- Tumor inhibition rate % ([2]; 160 mg/kg ig × 11 q2*2, by tumor weight): 62.5%
- Animal weight (g) Beginning ([3]; 120 mg/kg ig × 9 qod): 19 g
- Animal weight (g) end ([3]; 120 mg/kg ig × 9 qod): 16.7 g
- Body weight of mice (g) 1 day ([3]; 120 mg/kg ig × 9 qod): 19.03 ± 0.76 g
- Body weight of mice (g) 4 day ([3]; 120 mg/kg ig × 9 qod): 19.53 ± 0.71 g
- Body weight of mice (g) 8 day ([3]; 120 mg/kg ig × 9 qod): 18.24 ± 1.10 g
- Body weight of mice (g) 11 day ([3]; 120 mg/kg ig × 9 qod): 18.21 ± 1.02 g
- Body weight of mice (g) 16 day ([3]; 120 mg/kg ig × 9 qod): 17.09 ± 1.09 g
- Body weight of mice (g) 18 day ([3]; 120 mg/kg ig × 9 qod): 16.71 ± 0.97 g
- Animal No. end ([3]; 120 mg/kg ig × 9 qod): 7/7
- Animal weight (g) Beginning ([3]; 160 mg/kg ig × 6 q3d): 18.3 g
- Animal weight (g) end ([3]; 160 mg/kg ig × 6 q3d): 15.7 g
- Body weight of mice (g) 1 day ([3]; 160 mg/kg ig × 6 q3d): 18.37 ± 0.66 g
- Body weight of mice (g) 4 day ([3]; 160 mg/kg ig × 6 q3d): 19.10 ± 0.73 g
- Body weight of mice (g) 8 day ([3]; 160 mg/kg ig × 6 q3d): 17.33 ± 1.52 g
- Body weight of mice (g) 11 day ([3]; 160 mg/kg ig × 6 q3d): 17.15 ± 1.33 g
- Body weight of mice (g) 16 day ([3]; 160 mg/kg ig × 6 q3d): 16.43 ± 1.47 g
- Body weight of mice (g) 18 day ([3]; 160 mg/kg ig × 6 q3d): 15.73 ± 1.31 g
- Animal No. end ([3]; 160 mg/kg ig × 6 q3d): 7/3
- Animal weight (g) Beginning ([4]; 120 mg/kg ig × 11 qod): 20.04 g
- Animal weight (g) end ([4]; 120 mg/kg ig × 11 qod): 17.33 g
- Body weight of mice (g) 1 day ([4]; 120 mg/kg ig × 11 qod): 20.04 ± 0.51 g
- Body weight of mice (g) 3 day ([4]; 120 mg/kg ig × 11 qod): 19.80 ± 1.18 g
- Body weight of mice (g) 7 day ([4]; 120 mg/kg ig × 11 qod): 18.86 ± 0.70 g
- Body weight of mice (g) 10 day ([4]; 120 mg/kg ig × 11 qod): 18.20 ± 0.68 g
- Body weight of mice (g) 14 day ([4]; 120 mg/kg ig × 11 qod): 18.11 ± 0.49 g
- Body weight of mice (g) 17 day ([4]; 120 mg/kg ig × 11 qod): 17.43 ± 0.51 g
- Body weight of mice (g) 22 day ([4]; 120 mg/kg ig × 11 qod): 17.24 ± 0.72 g
- Body weight of mice (g) 24 day ([4]; 120 mg/kg ig × 11 qod): 17.56 ± 1.21 g
- Body weight of mice (g) 25 day ([4]; 120 mg/kg ig × 11 qod): 17.33 ± 1.23 g
- Animal No. end ([4]; 120 mg/kg ig × 11 qod): 7/7
- Animal weight (g) Beginning ([4]; 160 mg/kg ig × 9 q3d): 20.00 g
- Animal weight (g) end ([4]; 160 mg/kg ig × 9 q3d): 16.24 g
- Body weight of mice (g) 1 day ([4]; 160 mg/kg ig × 9 q3d): 20.00 ± 0.48 g
- Body weight of mice (g) 3 day ([4]; 160 mg/kg ig × 9 q3d): 20.54 ± 0.53 g
- Body weight of mice (g) 7 day ([4]; 160 mg/kg ig × 9 q3d): 18.64 ± 0.61 g
- Body weight of mice (g) 10 day ([4]; 160 mg/kg ig × 9 q3d): 17.89 ± 0.39 g
- Body weight of mice (g) 14 day ([4]; 160 mg/kg ig × 9 q3d): 17.83 ± 0.57 g
- Body weight of mice (g) 17 day ([4]; 160 mg/kg ig × 9 q3d): 18.24 ± 0.46 g
- Body weight of mice (g) 22 day ([4]; 160 mg/kg ig × 9 q3d): 16.91 ± 0.97 g
- Body weight of mice (g) 24 day ([4]; 160 mg/kg ig × 9 q3d): 16.53 ± 1.29 g
- Body weight of mice (g) 25 day ([4]; 160 mg/kg ig × 9 q3d): 16.24 ± 1.55 g
- Animal No. end ([4]; 160 mg/kg ig × 9 q3d): 7/7
- effect on microtubule organization [5]: findings similar to those of vincristine-induced microtubule changes
